Assay results reported in ChEMBL document CHEMBL3885861, “Open TG-GATES”.

Organism: Rattus norvegicus
Experiment: Open TG-GATES - Regimen: Daily Repeat
Type: toxicity, organism-based, Sprague-Dawley
Design: regimen Daily Repeat, gender Male, age 6 weeks
Settings: in vivo, po, 600 mg/kg, […], route gavage, dose level High; for KIDNEY_L / KIDNEY_R / KIDNEY_TOTAL: tissue Kidney; for LIVER: tissue Liver; for A/G / ALP / ALT / AST / BUN / CRE / Ca / Cl / DBIL / GLC / IP / K / LDH / Na / PL / RALB / TBIL / TC / TG / TP / gamma-GTP: tissue Plasma

## C[C@](N)(Cc1ccc(O)c(O)c1)C(=O)O [METHYLDOPA]
Tissue Blood, time 28 day
  Lym: 75.4%
  MCH: 19.7 pg
  MCHC: 34.5%
  MCV: 57.2 fL
  Mono: 2%
  Neu: 21.2%
  PT: 14.1 s
  Plat: 101.5 x10_4/uL
  RBC: 756.4 x10_4/ul
  Ret: 2.4%
  WBC: 68.4 x10_2/uL
Time 7 day
  KIDNEY_L: 0.9 g
  KIDNEY_R: 0.9 g
  KIDNEY_TOTAL: 1.8 g
  LIVER: 8.1 g
  A/G: 0.9
  ALP: 1646.8 IU/L
  ALT: 51 IU/L
  AST: 88.4 IU/L
  BUN: 14.6 mg/dL
  CRE: 0.2 mg/dL
  Ca: 10.9 mg/dL
  Cl: 107.6 meq/L
  DBIL: 0.008 mg/dL
  GLC: 179.2 mg/dL
  IP: 7.8 mg/dL
  K: 4.4 meq/L
  LDH: 66.4 IU/L
  Na: 146 meq/L
  PL: 133.2 mg/dL
  RALB: 2.7 g/dL
  TBIL: 0.064 mg/dL
  TC: 87.4 mg/dL
  TG: 26 mg/dL
  TP: 5.7 g/dL
  gamma-GTP: 1.2 IU/L
Time 14 day
  KIDNEY_L: 1 g
  KIDNEY_R: 1 g
  KIDNEY_TOTAL: 2 g
  LIVER: 9.1 g
  A/G: 0.8
  ALP: 1330.4 IU/L
  ALT: 43.8 IU/L
  AST: 65 IU/L
  BUN: 12.2 mg/dL
  CRE: 0.2 mg/dL
  Ca: 11.2 mg/dL
  Cl: 105.4 meq/L
  DBIL: 0.002 mg/dL
  GLC: 179.6 mg/dL
  IP: 7.9 mg/dL
  K: 4.7 meq/L
  LDH: 53.4 IU/L
  Na: 143 meq/L
  PL: 139.4 mg/dL
  RALB: 2.7 g/dL
  TBIL: 0.054 mg/dL
  TC: 91 mg/dL
  TG: 26.4 mg/dL
  TP: 5.8 g/dL
  gamma-GTP: 1 IU/L
Time 28 day
  KIDNEY_L: 1.2 g
  KIDNEY_R: 1.2 g
  KIDNEY_TOTAL: 2.5 g
  LIVER: 11.7 g
  A/G: 0.8
  ALP: 1178.8 IU/L
  ALT: 40 IU/L
  AST: 56.8 IU/L
  BUN: 13 mg/dL
  CRE: 0.2 mg/dL
  Ca: 11 mg/dL
  Cl: 104.4 meq/L
  DBIL: 0.016 mg/dL
  GLC: 177.2 mg/dL
  IP: 7.4 mg/dL
  K: 4.3 meq/L
  LDH: 39.2 IU/L
  Na: 144.8 meq/L
  PL: 140.6 mg/dL
  RALB: 2.7 g/dL
  TBIL: 0.062 mg/dL
  TC: 84.4 mg/dL
  TG: 37.6 mg/dL
  TP: 6 g/dL
  gamma-GTP: 1 IU/L
